Tested on: 377384-186-R-J1-PDC complex spheroid viability
Assay: Anticancer human tumor 377384-186-R-J1-PDC patient-derived pancreatic carcinoma cell line growth inhibition [CLK]
Settings: for IC50: curve of first compound; for viability, T/C: stronger effect = lower value
In short: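 Multi-cell-type spheroids combined patient-derived tumor cells with HUVEC endothelial cells and human mesenchymal stem cells. Paired agents were dosed in half-log steps down from about clinical Cmax, or from 10 microM where Cmax was unknown.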

[1] = second compound 0.0316 µM, first compound 0.00316 µM
[2] = second compound 0.0316 µM, first compound 0.01 µM
[3] = second compound 0.0316 µM, first compound 0.0316 µM
[4] = second compound 0.0316 µM, first compound 0.1 µM
[5] = second compound 0.1 µM, first compound 0.00316 µM
[6] = second compound 0.1 µM, first compound 0.01 µM
[7] = second compound 0.1 µM, first compound 0.0316 µM
[8] = second compound 0.1 µM, first compound 0.1 µM
[9] = second compound 0.316 µM, first compound 0.00316 µM
[10] = second compound 0.316 µM, first compound 0.01 µM
[11] = second compound 0.316 µM, first compound 0.0316 µM
[12] = second compound 0.316 µM, first compound 0.1 µM
[13] = second compound 1 µM, first compound 0.00316 µM
[14] = second compound 1 µM, first compound 0.01 µM
[15] = second compound 1 µM, first compound 0.0316 µM
[16] = second compound 1 µM, first compound 0.1 µM
[17] = second compound 3.16 µM, first compound 0.00316 µM
[18] = second compound 3.16 µM, first compound 0.01 µM
[19] = second compound 3.16 µM, first compound 0.0316 µM
[20] = second compound 3.16 µM, first compound 0.1 µM
[21] = second compound 10 µM, first compound 0.00316 µM
[22] = second compound 10 µM, first compound 0.01 µM
[23] = second compound 10 µM, first compound 0.0316 µM
[24] = second compound 10 µM, first compound 0.1 µM
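Further: spheroids exposed to agents for 7 days before reading.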
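Wherever viability, T/C is given: luminescence signal used as a stand-in for viable cells.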

Question: Which results are given for `CCc1c2c(nc3ccc(O)cc13)-c1cc3c(c(=O)n1C2)COC(=O)[C@]3(O)CC` + CN1CCN(c2cc(C(=O)Nc3cc4cc(-c5cnn(C)c5)ccc4cn3)ccn2)CC1?
Answer: IC50 (second compound 0.0316 µM): < 3.16 nM; IC50 (second compound 0.1 µM): < 3.16 nM; IC50 (second compound 0.316 µM): < 3.16 nM; IC50 (second compound 1 µM): < 3.16 nM; IC50 (second compound 3.16 µM): < 3.16 nM; IC50 (second compound 10 µM): < 3.16 nM; viability, T/C [1]: 38.2%; viability, T/C [2]: 16.4%; viability, T/C [3]: 9%; viability, T/C [4]: 3.5%; viability, T/C (second compound 0.0316 µM, first compound 0.316 µM): 2%; viability, T/C (second compound 0.0316 µM, first compound 1 µM): 0.73%; viability, T/C [5]: 31.7%; viability, T/C [6]: 18.6%; viability, T/C [7]: 8.13%; viability, T/C [8]: 3.62%; viability, T/C (second compound 0.1 µM, first compound 0.316 µM): 1.47%; viability, T/C (second compound 0.1 µM, first compound 1 µM): 0.71%; viability, T/C [9]: 18.3%; viability, T/C [10]: 15%; viability, T/C [11]: 7.22%; viability, T/C [12]: 4.37%; viability, T/C (second compound 0.316 µM, first compound 0.316 µM): 1.79%; viability, T/C (second compound 0.316 µM, first compound 1 µM): 0.66%; viability, T/C [13]: 0.56%; viability, T/C [14]: 0.36%; viability, T/C [15]: 1.07%; viability, T/C [16]: 0.19%; viability, T/C (second compound 1 µM, first compound 0.316 µM): 0.14%; viability, T/C (second compound 1 µM, first compound 1 µM): 0.3%; viability, T/C [17]: 0.23%; viability, T/C [18]: 0.3%; viability, T/C [19]: 0.53%; viability, T/C [20]: 0.25%; viability, T/C (second compound 3.16 µM, first compound 0.316 µM): 0.38%; viability, T/C (second compound 3.16 µM, first compound 1 µM): 0.85%; viability, T/C [21]: 0.27%; viability, T/C [22]: 1.05%; viability, T/C [23]: 0.38%; viability, T/C [24]: 0.27%; viability, T/C (second compound 10 µM, first compound 0.316 µM): 0.23%; viability, T/C (second compound 10 µM, first compound 1 µM): 0.35%

Question: `Cn1ncnc1[C@H]1c2n[nH]c(=O)c3cc(F)cc(c23)N[C@@H]1c1ccc(F)cc1` + CN1CCN(c2cc(C(=O)Nc3cc4cc(-c5cnn(C)c5)ccc4cn3)ccn2)CC1 was tested. Which IC50 (second compound 0.0316 µM) did it give?
Answer: Its IC50 is > 100 nM.

Question: And the IC50 (second compound 0.1 µM)?
Answer: Its IC50 is 50 nM.

Question: And the IC50 (second compound 0.316 µM)?
Answer: The IC50 was < 0.316 nM.

Question: And the IC50 (second compound 1 µM)?
Answer: Its IC50 is < 0.316 nM.

Question: What about the IC50 (second compound 3.16 µM) of the same molecule?
Answer: The IC50 was < 0.316 nM.

Question: And the IC50 (second compound 10 µM)?
Answer: The IC50 was < 0.316 nM.

Question: What about the viability, T/C (second compound 0.0316 µM, first compound 0.000316 µM) of the same molecule?
Answer: The viability, T/C was 90.4%.

Question: What about the viability, T/C (second compound 0.0316 µM, first compound 0.001 µM) of the same molecule?
Answer: Its viability, T/C is 77.8%.

Question: What about the viability, T/C [1] of the same molecule?
Answer: Its viability, T/C is 74.8%.

Question: What about the viability, T/C [2] of the same molecule?
Answer: The viability, T/C was 65.6%.

Question: What about the viability, T/C [3] of the same molecule?
Answer: Its viability, T/C is 55.4%.

Question: What about the viability, T/C [4] of the same molecule?
Answer: Its viability, T/C is 52.1%.

Question: What about the viability, T/C (second compound 0.1 µM, first compound 0.000316 µM) of the same molecule?
Answer: The viability, T/C was 88.1%.

Question: And the viability, T/C (second compound 0.1 µM, first compound 0.001 µM)?
Answer: Its viability, T/C is 81.2%.

Question: And the viability, T/C [5]?
Answer: The viability, T/C was 70.4%.

Question: What about the viability, T/C [6] of the same molecule?
Answer: The viability, T/C was 58.9%.

Question: What about the viability, T/C [7] of the same molecule?
Answer: The viability, T/C was 53.9%.

Question: What about the viability, T/C [8] of the same molecule?
Answer: The viability, T/C was 46%.

Question: What about the viability, T/C (second compound 0.316 µM, first compound 0.000316 µM) of the same molecule?
Answer: The viability, T/C was 21.2%.

Question: What about the viability, T/C (second compound 0.316 µM, first compound 0.001 µM) of the same molecule?
Answer: Its viability, T/C is 23.7%.

Question: What about the viability, T/C [9] of the same molecule?
Answer: The viability, T/C was 25.9%.

Question: What about the viability, T/C [10] of the same molecule?
Answer: The viability, T/C was 22.4%.

Question: And the viability, T/C [11]?
Answer: The viability, T/C was 21.9%.

Question: What about the viability, T/C [12] of the same molecule?
Answer: The viability, T/C was 18.6%.

Question: What about the viability, T/C (second compound 1 µM, first compound 0.000316 µM) of the same molecule?
Answer: Its viability, T/C is 0.86%.

Question: What about the viability, T/C (second compound 1 µM, first compound 0.001 µM) of the same molecule?
Answer: Its viability, T/C is 0.77%.

Question: And the viability, T/C [13]?
Answer: The viability, T/C was 1.08%.

Question: What about the viability, T/C [14] of the same molecule?
Answer: Its viability, T/C is 0.85%.

Question: And the viability, T/C [15]?
Answer: Its viability, T/C is 0.82%.

Question: And the viability, T/C [16]?
Answer: Its viability, T/C is 1.53%.

Question: What about the viability, T/C (second compound 3.16 µM, first compound 0.000316 µM) of the same molecule?
Answer: The viability, T/C was 0.25%.

Question: What about the viability, T/C (second compound 3.16 µM, first compound 0.001 µM) of the same molecule?
Answer: Its viability, T/C is 0.59%.

Question: What about the viability, T/C [17] of the same molecule?
Answer: Its viability, T/C is 1.07%.

Question: And the viability, T/C [18]?
Answer: Its viability, T/C is 0.33%.

Question: And the viability, T/C [19]?
Answer: The viability, T/C was 0.69%.

Question: And the viability, T/C [20]?
Answer: Its viability, T/C is 0.48%.

Question: What about the viability, T/C (second compound 10 µM, first compound 0.000316 µM) of the same molecule?
Answer: The viability, T/C was 0.45%.

Question: And the viability, T/C (second compound 10 µM, first compound 0.001 µM)?
Answer: The viability, T/C was 1.52%.

Question: What about the viability, T/C [21] of the same molecule?
Answer: The viability, T/C was 0.56%.

Question: What about the viability, T/C [22] of the same molecule?
Answer: Its viability, T/C is 1.45%.

Question: What about the viability, T/C [23] of the same molecule?
Answer: Its viability, T/C is 0.51%.

Question: What about the viability, T/C [24] of the same molecule?
Answer: The viability, T/C was 0.39%.

Reference: PubChem BioAssay AID2060616 (Molecular Pharmacology Branch, DTP, NCI, 2025)
